From patent US9975852B2, “Quinoline sulfonyl derivatives and uses thereof” (Health Sciences North Research Institute, priority 2013, dated 2018) come the findings set out here.

Usually GI50 stands for the concentration that inhibits growth by half. One may read the melting point as the temperature, or range, at which the solid turns liquid.

For series [1], the system named is MCF7. The series can be described thus: SRB antiproliferative assay, MCF7. It counts as cell-based, human. The following applies: Homo sapiens, MCF7; SRB, 48 h; read-out: GI50 MCF7. On the procedure: (§1) Antiproliferative effects were determined by a sulforhodamine B (SRB) based protocol. For a typical screening experiment, 5,000-10,000 cells were inoculated into 100 μl medium per well of a 96-well microtiter plate as described previously. […] Some of the sample wells were fixed with 25 μl of 50% trichloroacetic acid (TCA) as a control of the cell population for each cell line at the time of drug addition (Tz). An aliquot of the frozen stock was thawed and diluted to the desired final maximum test-concentration with complete medium. Two to ten-fold serial dilutions were made to provide a total of seven drug concentrations (and a control [C]). Following addition of drugs, the culture plate was incubated for additional 48 h. Cells were fixed in situ by slowly adding 25 μl of ice-cold 50% (w/v) TCA (final concentration, 10% TCA), and were then incubated for 60 min at 4° C. The supernatant was discarded, and the plate was washed five times with tap water, followed by air-dry. 50 μl of SRB solution at 0.4% (w/v) in 1% acetic acid was added to each well, and the plate was incubated for >30 min at room temperature. Unbound SRB was removed by five washes with tap water, followed by air-drying. […] The relative growth rate (%) was calculated for each of the compound concentrations according to the following formula: (Ti−Tz)/(C−Tz)×100 In the formula, time zero (Tz), control growth (C), and OD for different concentration of tested compounds (Ti). The GI50 for each compound was obtained from a non-linear Sigmoidal dose-response (variable slope) curve which is fitted by GraphPad Prism™ v.4.03 software. Values were calculated for each of these parameters if the level of activity was reached. However, if the effect was not reached or was exceeded, the value for that parameter was expressed as greater or less than the maximum or minimum concentration tested. Flow Cytometry
(In general: Sulforhodamine B stains cellular protein and so reports cell mass.)

Series [2] relates to 184B5. The series can be described thus: SRB antiproliferative assay, 184B5 non-cancer breast cells. It is filed as cell-based, human. The following applies: Homo sapiens, 184B5; SRB, 48 h; read-out: GI50 184B5. As to the method:
as §1

The subject of series [3] is MDA-MB231. The experiment in a line: SRB antiproliferative assay, MDA-MB231. It counts as cell-based, human. To be noted: Homo sapiens, MDA-MB-231, 48 h. On the procedure:
as §1

Series [4] concerns MDA-MB468. The experiment in a line: SRB antiproliferative assay, MDA-MB468. It is filed as cell-based, human. The following applies: Homo sapiens, MDA-MB-468, 48 h. As to the method: as §1

For `COC(=O)c1sccc1S(=O)(=O)N1CCN(c2ccnc3cc(Cl)ccc23)CC1` [Compound 2, Methyl 3-(4-(7-chloroquinolin-4-yl)piperazin-1-ylsulfonyl)thiophene-2-carboxylate], the melting point lay in the range of 117 to 119 °C. Besides, the GI50 in series [1] stood at 22.37 ± 0.21 µM. For the same molecule, the GI50 in series [2] turned out to be 15.2 ± 0.18 µM. Moreover, growth in series [3] was halved (GI50) at 40.4 ± 0.82 µM. This molecule displayed a GI50 in series [4] of 30.2 ± 0.71 µM.
Taken in the same sequence, the figures for `O=S(=O)(c1ccc(-c2ccccc2)cc1)N1CCN(c2ccnc3cc(Cl)ccc23)CC1` [Compound 3, 7-Chloro-4-(4-(biphenylsulfonyl)piperazin-1-yl)quinoline] were 238 to 240 °C, 9.23 ± 0.21 µM, 16.4 ± 0.23 µM, 26.2 ± 0.62 µM and 18.2 ± 0.54 µM.
`CN(C)c1cccc2c(S(=O)(=O)N3CCN(c4ccnc5cc(Cl)ccc45)CC3)cccc12` [Compound 4, 5-(4-(7-Chloroquinolin-4-yl)piperazin-1-ylsulfonyl)-N,N-dimethylnaphthalen-1-amine] registered a melting point of 145 to 147 °C. Besides, the GI50 in series [2] stood at 28.25 ± 0.26 µM. This molecule gave a concentration for 50% growth inhibition (GI50) in series [3] of 35 ± 0.76 µM. In series [4], this molecule gave a GI50 of 27.5 ± 0.66 µM.
The molecule `O=S(=O)(c1ccc(Cl)cc1Cl)N1CCN(c2ccnc3cc(Cl)ccc23)CC1` [Compound 5, 7-Chloro-4-(4-(2,4-dichlorophenylsulfonyl)piperazin-1-yl)quinoline] came in with a melting point of 145 to 147 °C. In addition, the GI50 in series [1] amounted to 13.5 ± 0.23 µM. Also, the GI50 in series [2] came to 12.4 ± 0.15 µM. For the same molecule, the GI50 in series [3] was 40.6 ± 0.81 µM. Halving of growth in series [4] (GI50) required 21.6 ± 0.61 µM.
In the same order, the values of `O=[N+]([O-])c1cccc(S(=O)(=O)N2CCN(c3ccnc4cc(C(F)(F)F)ccc34)CC2)c1` [Compound 6, 4-[4-(3-Nitro-benzenesulfonyl)-piperazin-1-yl]-7-trifluoromethyl-quinoline] are 199 to 201 °C, 9.44 ± 0.25 µM, 17.7 ± 0.21 µM, 32.2 ± 0.68 µM and 18.6 ± 0.57 µM.
`O=S(=O)(c1ccc(Cl)cc1)N1CCN(c2ccnc3cc(C(F)(F)F)ccc23)CC1` [Compound 7, 4-[4-(4-Chloro-benzenesulfonyl)-piperazin-1-yl]-7-trifluoromethyl-quinoline]: the melting point was 144 to 146 °C. Moreover, in series [1], the GI50 was 27.36 ± 0.27 µM. In addition, the GI50 in series [3] was 41.4 ± 0.83 µM. The same molecule yielded a GI50 in series [4] of 34.9 ± 0.78 µM.
In the case of `CS(=O)(=O)NCCCNc1ccnc2cc(Cl)ccc12` [Compound 15, N-[3-(7-Chloro-quinolin-4-ylamino)-propyl]-methanesulfonamide], the GI50 in series [1] was 23.1 ± 0.87 µM; in series [2] it was 23.3 ± 0.92 µM; in series [3] it was 40.9 ± 1.52 µM; in series [4], 28.6 ± 1.03 µM.
For the molecule `Cc1ccc(S(=O)(=O)NCCCNc2ccnc3cc(Cl)ccc23)cc1` [Compound 16, N-[3-(7-Chloro-quinolin-4-ylamino)-propyl]-4-methyl-benzenesulfonamide], the GI50 was determined as 5.25 ± 0.45 µM in series [1], 9.56 ± 0.53 µM in series [2], 6.16 ± 0.51 µM in series [3] and 5.77 ± 0.41 µM in series [4].
In the same order, the values of `O=[N+]([O-])c1cccc(S(=O)(=O)NCCCNc2ccnc3cc(Cl)ccc23)c1` [Compound 18, N-(3-(7-Chloroquinolin-4-ylamino)propyl)-3-nitrobenzenesulfonamide] are 8.62 ± 0.38 µM, 15.8 ± 0.88 µM, 20.4 ± 1.15 µM and 9.21 ± 0.65 µM.
As to `O=S(=O)(NCCCNc1ccnc2cc(Cl)ccc12)c1ccc(Cl)cc1` [Compound 19, 4-Chloro-N-(3-(7-chloroquinolin-4-ylamino)propyl)benzenesulfonamide], the GI50 in series [1] was 4.31 ± 0.32 µM; in series [2], 6.36 ± 0.34 µM; in series [3], 11.8 ± 0.91 µM; in series [4] it was 8.34 ± 0.73 µM.
